Experimental data reported in patent US20130280204A1 (priority 2007, published 2013).
Like-named read-outs stand apart in the source and are kept apart here.

Key:
[1] = tested on: TKY virus; format: cell-based, influenza A virus H4N2; conditions: t=15 min
[2] = tested on: human influenza A/Wuhan/359/95 (Wuhan); assay: microbe, parasite or virus in culture; format: cell-based, influenza A virus H3N2
[3] = tested on: avian influenza A/turkey/MN/833/80 (TKY); assay: microbe, parasite or virus in culture; format: cell-based, influenza A virus H4N2
[4] = tested on: WSN strain; design: species or system Balb/C mice; conditions: mouse, in vivo
[5] = tested on: A/Nanchang/933/95 (Nanchang) virus; design: species or system ferrets; conditions: in vivo
[6] = tested on: avian strain A/Turkey/MN/80 (TKY); format: cell-based, influenza A virus H4N2
[7] = tested on: TKY Wild-type; format: cell-based, influenza A virus H4N2; conditions: read-out: IC50 (nM, based on ZA) Wild-type
[8] = tested on: TKY Drug-free p23 (DF23); format: cell-based, influenza A virus H4N2; conditions: read-out: IC50 (nM, based on ZA) Drug-free p23
[9] = molecular target: viral NA of TKY Wild-type (Influenza A virus (A/turkey/Minnesota/833/1980(H4N2)), UniProt Q20NP0); format: biochemical; conditions: read-out: Ki (nM, based on ZA) Wild-type
Sequence of viral NA of TKY Wild-type (Influenza A virus (A/turkey/Minnesota/833/1980(H4N2)), UniProt Q20NP0) (Q20NP0 whole entry, looked up): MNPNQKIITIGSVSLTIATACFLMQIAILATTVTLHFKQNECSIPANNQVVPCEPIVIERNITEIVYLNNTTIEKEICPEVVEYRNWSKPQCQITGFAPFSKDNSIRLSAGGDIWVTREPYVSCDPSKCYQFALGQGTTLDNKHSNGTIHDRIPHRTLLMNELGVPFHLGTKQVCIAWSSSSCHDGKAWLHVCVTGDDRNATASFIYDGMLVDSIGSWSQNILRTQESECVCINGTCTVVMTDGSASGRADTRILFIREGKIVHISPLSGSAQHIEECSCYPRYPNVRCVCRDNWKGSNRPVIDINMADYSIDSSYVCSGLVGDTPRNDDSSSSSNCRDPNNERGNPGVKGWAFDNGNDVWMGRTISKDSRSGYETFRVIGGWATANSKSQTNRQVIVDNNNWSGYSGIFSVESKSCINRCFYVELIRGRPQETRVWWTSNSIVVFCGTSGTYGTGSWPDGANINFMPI

[10] = molecular target: viral NA of TKY Drug-free p23 (DF23) (Influenza A virus (A/turkey/Minnesota/833/1980(H4N2)), UniProt Q20NP0); format: biochemical; conditions: read-out: Ki (nM, based on ZA) Drug-free p23
Sequence of viral NA of TKY Drug-free p23 (DF23) (Influenza A virus (A/turkey/Minnesota/833/1980(H4N2)), UniProt Q20NP0) (Q20NP0 whole entry, looked up): as above

[11] = molecular target: active site of NA; conditions: read-out: affinity constant for the active site of NA; cited from earlier work
[12] = tested on: influenza A/WSN/33 (WSN); assay: microbe, parasite or virus in culture; format: cell-based, influenza A virus H1N1; conditions: read-out: IC50 (nM 1) WSN

For NC12CC3CC(CC(C3)C1)C2 [amantadine], the “viral particles inside the cells” value [1] was “accumulation of viral particles inside the cells”.
For CC(=O)N[C@H]1[C@H]([C@H](O)[C@H](O)CO)OC(C(=O)O)=C[C@@H]1N=C(N)N [compound 1, zanamivir], the IC50 ([2]; H3N2, read-out: IC50 (nM Sugar) Wuhan (H3N2)) was 20000 nM, the IC50 ([3]; H4N2, read-out: IC50 (nM Sugar) Turkey/WT (H4N2)) was 20000 nM and the “drop of viral titers in lung homogenates vs untreated mice” value [4] was 20 fold. For the same compound, the “reduction in nasal wash viral titer compared to PBS controls, day 4 p.i.” value [5] was “did not”, the “reduction in nasal wash viral titer compared to PBS controls, day 6 p.i.” value [5] was “did not” and the “reduction in nasal wash viral titer compared to PBS-treated group, day 2 p.i.” value [5] was 38 fold. For the same compound, the “change of potency (IC50), early and late vs late only” value [6] was “remained the same”, the IC50 [7] was 56 ± 8 nM and the IC50 [8] was 38 ± 31 nM. The Ki [9] was 5.3 ± 0.4 nM, the Ki [10] was 8.8 ± 5.6 nM and the Kd [11] was 0.0001 to 0.001 µM.
CC(=O)NC1C(NC(=N)N)C=C(C(=O)O)OC1C(OC(=O)NCCOCCN)C(O)CO (stereo not shown) [compound 3, 3-Acetamido-2-(1-(((2-(2-aminoethoxy)ethyl)carbamoyl)oxy)-2,3-dihydroxypropyl)-4-guanidino-3,4-dihydro-2H-pyran-6-carboxylic acid] gave an IC50 [12] of 57000 nM, an IC50 ([2]; read-out: IC50 (nM 1) Wuhan) of 1.3e+06 nM and an IC50 ([3]; read-out: IC50 (nM 1) TKY) of 1.4e+06 nM.
Compound CC(=O)NC1C(NC(=N)N)C=C(C(=O)O)OC1C(OC(=O)Nc1ccc(CN)cc1)C(O)CO (stereo not shown) [compound 4, 3-Acetamido-2-(1-(((4-(aminomethyl)phenyl)carbamoyl)oxy)-2,3-dihydroxypropyl)-4-guanidino-3,4-dihydro-2H-pyran-6-carboxylic acid] has an IC50 [12] of 76000 nM, an IC50 ([2]; read-out: IC50 (nM 1) Wuhan) of 840000 nM and an IC50 ([3]; read-out: IC50 (nM 1) TKY) of 2.3e+06 nM.
